Laboratory results reported in patent US8911769B2, “Orally disintegrating pharmaceutical composition comprising diclofenac” (Novartis AG, priority 2004, dated 2014).

What was measured:
[1] = Non-aggregation of diclofenac free acid in dispersion (Malvern laser particle size analyzer); assay type: physicochemical
Protocol: For example, the edible film of Example 2 completely disintegrates within 15 seconds. • (b) Plasma levels of diclofenac: The plasma levels of diclofenac are measured in vivo, e.g. in pigs, at different time intervals after oral administration of the edible films. Edible films according to the invention may produce similar plasma levels of diclofenac as a commercially available tablet comprising 12.5 mg diclofenac potassium (Voltaren® Dolo) [AUC (=Area Under the Curve) is essentially the same]. Tmax may be even shorter in edible films than in Voltaren® Dolo—what is desirable in many cases. • (c) Consumer testing of the organoleptic properties of the edible films: The perception of the edible films immediately after administration is tested. An immediate softening and pleasant feeling in the mouth are realized. • (d) Taste evaluation of the edible films: The taste of the edible films is evaluated in vitro with the aid of an “electronic tongue” equipment and also in consumer tests. […] For example, the particle size of—non-micronized or micronized—diclofenac free acid is measured with the aid of a Malvern (UK) laser particle size analyzer equipment before and after processing, under different conditions of manufacture, to an edible film.

[2] = in water and ethanol/water mixtures; cited from earlier work

- particle size distribution profile, starting material versus released from edible films ([1]; before and after processing to an edible film (with ethanol, without ethanol, without ethanol with homogenization), disintegrated in water): essentially is no difference
- aggregation in dispersion ([1]; non-micronized (mean particle size 16 micrometers) or micronized, solvents e.g. water, water/ethanol or ethanol): no such aggregation does occur
Compound: O=C(O)Cc1ccccc1Nc1c(Cl)cccc1Cl [diclofenac free acid]
- solubility [2]: only poorly soluble
